Patent publication US6342502B1, “Thieno[2,3-d]pyrimidine diones and their use in the treatment of reversible obstructive airways diseases” (AstraZeneca AB, priority 1997, dated 2002)

| Structure (SMILES) | melting point |
| --- | --- |
| CC(C)Cn1c(=O)n(C)c(=O)c2cc(Cc3cccc4ccccc34)sc21 [Example 4] | 137 to 138 °C |
| CC(C)Cn1c(=O)n(C)c(=O)c2c(Sc3ccc(N)cc3)c(Cc3cccc4ccccc34)sc21 [Example 36, 5-[(4-Aminophenyl)thio]-3-methyl-1-(2-methylpropyl)-6-(1-naphthalenylmethyl)thieno[2,3-d]pyrimidine-2,4-(1H, 3H)-dione] | 177 to 178 °C |
| CC(C)Cn1c(=O)n(C)c(=O)c2c(C(=O)NCC(=O)O)c(Cc3cccc4ccccc34)sc21 [Example 21, 2-{[1,2,3,4-Tetrahydro-3-methyl-1-(2-methylpropyl)-6-(1-naphthalenylmethyl)-2,4-dioxothieno[2,3-d]pyrimidin-5-yl]carboxamido}acetic acid] | 218 to 219 °C |
| COC(=O)Nc1cccc(Sc2c(Cc3cccc4ccccc34)sc3c2c(=O)n(C)c(=O)n3CC(C)C)c1 [Example 33] | 167 to 168 °C |
| CC(C)Cn1c(=O)n(C)c(=O)c2c(SCC(C)O)c(Cc3cccc4ccccc34)sc21 (racemic) [Example 15, (±) 5-[(2-Hydroxypropyl)thio]-3-methyl-1-(2-methylpropyl)-6-(1-naphthalenylmethyl)thieno[2,3-d]pyrimidine-2,4(1H,3H)-dione] | 126 to 128 °C |
| CC(=O)Nc1cccc(Sc2c(Cc3cccc4ccccc34)sc3c2c(=O)n(C)c(=O)n3CC(C)C)c1 [Example 34, 5-[(3-Acetamidophenyl)thio]-3-methyl-1-(2-methylpropyl)-6-(1-naphthalenylmethyl)thieno[2,3-d]pyrimidine-2,4-(1H, 3H)-dione] | 173 to 174 °C |
| CC(C)Cn1c(=O)n(C)c(=O)c2c(Sc3ccc([N+](=O)[O-])cn3)c(Cc3cccc4ccccc34)sc21 [Example 37, 3-Methyl-1-(2-methylpropyl)-6-(1-naphthalenylmethyl)-5-[(5-nitropyridin-2-yl)thio]thieno[2,3-d]pyrimidine-2,4-(1H, 3H)-dione] | 200 to 201 °C |
| CC(C)Cn1c(=O)n(C)c(=O)c2c(SCCCC(=O)O)c(Cc3cccc4ccccc34)sc21 [Example 8, 4-[(1,2,3,4-Tetrahydro-3-methyl-1-(2-methylpropyl)-6-(1-naphthalenylmethyl)-2,4-dioxothieno[2,3-d]pyrimidin-5-yl)thio]butanoic acid] | 172 to 173 °C |
| CC(C)Cn1c(=O)n(C)c(=O)c2c(S(=O)(=O)CCCC(=O)O)c(Cc3cccc4ccccc34)sc21 [Example 11, 4-[(1,2,3,4-Tetrahydro-3-methyl-1-(2-methylpropyl)-6-(1-naphthalenylmethyl)-2,4-dioxothieno[2,3-d]pyrimidin-5-yl)sulfonyl]butanoic acid] | 174 to 181 °C |

The remaining lines, values ahead:

| melting point | Structure (SMILES) |
| --- | --- |
| 151 to 152 °C | CC(C)Cn1c(=O)n(C)c(=O)c2c(NC(=O)N(C)CCO)c(Cc3cccc4ccccc34)sc21 [Example 50] |
| 227 to 228 °C | CC(C)Cn1c(=O)n(C)c(=O)c2c(NC(=O)NCCO)c(Cc3cccc4ccccc34)sc21 [Example 48] |
| 230 °C | CC(=O)Nc1cccc(C(=O)Nc2ccc(Cc3cc4c(=O)n(C)c(=O)n(CC(C)C)c4s3)cc2)c1 [Example 94] |
| 76 to 78 °C | CC(C)Cn1c(=O)n(C)c(=O)c2cc(Cc3cccc(F)c3)sc21 [Example 52, 6-[(3-Fluorophenyl)methyl]-3-methyl-1-(2-methylpropyl)thieno[2,3-d]pyrimidine-2,4-(1H, 3H)-dione] |
| 94 to 96 °C | CC(C)Cn1c(=O)n(C)c(=O)c2c(SCCCN=[N+]=[N-])c(Cc3cccc4ccccc34)sc21 [Example 39, 5-[(3-Azidopropyl)thio]-3-methyl-1-(2-methylpropyl)-6-(1-naphthalenylmethyl)thieno[2,3-d]pyrimidine-2,4(1H,3H)-dione] |
| 201 to 202 °C | CC(C)Cn1c(=O)n(C)c(=O)c2c(NC(=O)OCCO)c(Cc3cccc4ccccc34)sc21 [Example 49, 2-Hydroxyethyl [1,2,3,4-tetrahydro-3-methyl-1-(2-methylpropyl)-6-(1-naphthalenylmethyl)-2,4-dioxothieno[2,3-d]pyrimidin-5-yl]carbamate] |
